# Measurements as given in ChEMBL document CHEMBL4406812, “Synthesis of quinones with highlighted biological applications: A critical update on the strategies towards bioactive compounds with emphasis on lapachones” (Eur J Med Chem, 2019).
# pIC50: −log10 of the molar value.
# Legend:
# [1] = test system: L02; experiment: Cytotoxicity against human LO2 cells assessed as reduction in cell viability after 48 hrs by MTT assay; type: functional, cell-based; details: L02, 48 h
# [2] = test system: HepG2; experiment: Cytotoxicity against human HepG2 cells assessed as reduction in cell viability after 48 hrs by MTT assay; type: functional, cell-based; details: HepG2, 48 h
# [3] = test system: Trypanosoma cruzi; experiment: Trypanocidal activity against Trypanosoma cruzi Y strain bloodstream trypomastigotes isolated from infected Swiss mouse infected with monkey LLC-MK2 cells after 5 days by fluorescence spectrophotometric analysis; type: functional, organism-based; details: LLC-MK2, 120 h
# [4] = Selectivity index, ratio of CC50 for monkey LLC-MK2 cells to IC50 for Trypanosoma cruzi Y strain bloodstream trypomastigotes; type: toxicity; details: read-out: Ratio IC50
# [5] = test system: HCT-116; experiment: Anticancer activity against human HCT116 cells by MTT assay; type: functional, cell-based
# [6] = test system: OVCAR-8; experiment: Anticancer activity against human OVCAR8 cells by MTT assay; type: functional, cell-based
# [7] = test system: HL-60; experiment: Anticancer activity against human HL60 cells by MTT assay; type: functional, cell-based
# [8] = test system: SF-295; experiment: Anticancer activity against human SF295 cells by MTT assay; type: functional, cell-based
# [9] = test system: Trypanosoma cruzi; experiment: Trypanocidal activity against Trypanosoma cruzi Y strain bloodstream trypomastigotes after 24 hrs; type: functional, organism-based
# [10] = test system: SF-295; experiment: Cytotoxicity against human SF295 cells assessed as reduction in cell viability after 72 hrs by MTT assay; type: functional, cell-based; details: SF-295, 72 h
# [11] = test system: MDA-MB-435; experiment: Cytotoxicity against human MDA-MB-435 cells assessed as reduction in cell viability after 72 hrs by MTT assay; type: functional, cell-based; details: MDA-MB-435, 72 h
# [12] = test system: HCT-8; experiment: Cytotoxicity against human HCT8 cells assessed as reduction in cell viability after 72 hrs by MTT assay; type: functional, cell-based; details: HCT-8, 72 h
# [13] = test system: HL-60; experiment: Cytotoxicity against human HL60 cells assessed as reduction in cell viability after 72 hrs by MTT assay; type: functional, cell-based; details: HL-60, 72 h
# [14] = test system: Trypanosoma cruzi; experiment: Anti-parasitic activity against trypomastigotes form of Trypanosoma cruzi after 24 hrs; type: functional, organism-based
# [15] = test system: Trypanosoma cruzi; experiment: Anti-parasitic activity against Trypanosoma cruzi; type: functional, organism-based
# [16] = test system: Trypanosoma cruzi; experiment: Anti-parasitic activity against amastigote form of Trypanosoma cruzi after 24 hrs; type: functional, organism-based
# [17] = test system: Hs-578T; experiment: Cytotoxicity against human Hs 578T cells assessed as reduction in cell viability after 72 hrs by MTT assay; type: functional, cell-based
# [18] = test system: NCI-H358; experiment: Cytotoxicity against human NCI-H358 cells assessed as reduction in cell viability after 72 hrs by MTT assay; type: functional, cell-based; details: NCI-H358, 72 h
# [19] = test system: SW-620; experiment: Cytotoxicity against human SW620 cells assessed as reduction in cell viability after 72 hrs by MTT assay; type: functional, cell-based; details: SW-620, 72 h
# [20] = test system: Hs-578T; experiment: Cytotoxicity against human Hs578T cells assessed as reduction in cell viability after 72 hrs by MTT assay; type: functional, cell-based
# [21] = test system: MCF7; experiment: Anticancer activity against human MCF7 cells; type: functional, cell-based
# [22] = test system: HCT-116; experiment: Anticancer activity against human HCT116 cells; type: functional, cell-based
# [23] = test system: HL-60; experiment: Anticancer activity against human HL60 cells; type: functional, cell-based
# [24] = test system: L929; experiment: Anticancer activity against mouse L929 cells; type: functional, cell-based
# [25] = test system: PC-3; experiment: Anticancer activity against human PC3 cells after 72 to 102 hrs by MTT assay; type: functional, cell-based
# [26] = test system: LNCaP; experiment: Anticancer activity against human LNCAP cells after 72 to 102 hrs by MTT assay; type: functional, cell-based
# [27] = test system: Mycobacterium tuberculosis; experiment: Antimycobacterial activity against Mycobacterium tuberculosis H37Rv; type: functional
# [28] = test system: HL-60; experiment: Cytotoxicity against human HL60 cells assessed as reduction in cell viability after 22 hrs by MTS assay; type: functional, cell-based; details: HL-60, 22 h
# [29] = test system: Trypanosoma cruzi; experiment: Trypanocidal activity against Trypanosoma cruzi Y strain bloodstream trypomastigotes isolated from infected Swiss mouse after 24 hrs by Neubauer chamber method; type: functional, organism-based
# [30] = test system: HCT-8; experiment: Anticancer activity against human HCT8 cells; type: functional, cell-based
# [31] = test system: SF-295; experiment: Anticancer activity against human SF295 cells; type: functional, cell-based
# [32] = test system: MDA-MB-435; experiment: Anticancer activity against human MDA-MB-435 cells; type: functional, cell-based
# [33] = test system: PBMC; experiment: Cytotoxicity against human PBMC; type: cell-based
# [34] = test system: Trypanosoma cruzi; experiment: Anti-parasitic activity against epimastigotes form of Trypanosoma cruzi; type: functional, organism-based
# [35] = test system: Vero; experiment: Cytotoxicity against African green monkey Vero cells assessed as reduction in cell viability after 48 hrs by MTT assay; type: cell-based; details: Chlorocebus sabaeus
# [36] = test system: HeLa; experiment: Cytotoxicity against human HeLa cells assessed as reduction in cell viability after 48 hrs by MTT assay; type: functional, cell-based
# [37] = test system: KB; experiment: Cytotoxicity against human KB cells assessed as reduction in cell viability after 48 hrs by MTT assay; type: functional, cell-based
# [38] = test system: Trypanosoma cruzi; experiment: Potency index, ratio of beta-lapachone IC50 to compound IC50 for Trypanosoma cruzi after 24 hrs; type: functional, organism-based
structure (smiles),measurement,setting,value
CN1C(=O)C2(C3=C(N=C4N=NNN42)c2ccccc2C(=O)C3=O)c2cccc(F)c21 (stereo not given),pIC50,[1],4.44 to 5.54
same,pIC50,[2],4.44 to 5.54
O=C1C(=O)c2ccccc2C2=C1C1(C(=O)Nc3ccc(OC(F)(F)F)cc31)N1NN=NC1=N2 (stereo not given),pIC50,[1],4.44 to 5.54
same,pIC50,[2],4.44 to 5.54
CCCCCCCCCCC1CC2=C(O1)c1ccccc1C(=O)C2=O (stereo not given),pIC50,[3],4.33
same,selectivity ratio,[4],36.3
CC1(C)O[C@@H]2O[C@@H](COC3C4=C(OC3(C)C)c3ccccc3C(=O)C4=O)[C@H]3OC(C)(C)O[C@H]3[C@@H]2O1 (stereo not given in full),pIC50,[5],6.46
same,pIC50,[6],6.15
same,pIC50,[7],6.64
same,pIC50,[8],6.64
COc1ccc(I)c2c1C(=O)C=C(C)C2=O,pIC50,[9],5.12
O=C1C(=O)c2c(O)cccc2C2=C1CCC(c1ccccc1)O2 (stereo not given),pIC50,[10],5.89
same,pIC50,[11],5.89
same,pIC50,[12],5.89
same,pIC50,[13],5.89
O=C1C=CC(=O)c2c(Sc3ccc(Br)cc3)cccc21,pIC50,[14],5.18
O=C1C(=O)c2ccccc2C2=C1C1(C(=O)Nc3ccc(F)cc31)N1NN=NC1=N2 (stereo not given),pIC50,[1],4.44 to 5.54
same,pIC50,[2],4.44 to 5.54
Cc1cc(I)c2c(c1)C(=O)C=CC2=O,pIC50,[15],6.30
O=C(Cn1ccnc1[N+](=O)[O-])NCc1ccccc1 [BENZNIDAZOLE],pIC50,[9],5.01
same,pIC50,[3],4.70
same,selectivity ratio,[4],16.8
same,pIC50,[16],5.48
CC1(C)O[C@H]2O[C@H](COC3C4=C(OC3(C)C)c3ccccc3C(=O)C4=O)[C@@H](OCc3ccccc3)[C@H]2O1 (stereo not given in full),pIC50,[5],6.29
same,pIC50,[6],6.05
same,pIC50,[7],6.80
same,pIC50,[8],6.47
O=C1C(=O)c2ccccc2C2=C1C1(C(=O)Nc3cc(Cl)ccc31)N1NN=NC1=N2 (stereo not given),pIC50,[1],4.44 to 5.54
same,pIC50,[2],4.44 to 5.54
CC1(C)OC2=C(C(=O)C(=O)c3ccccc32)C1n1cc(-c2ccc(Nc3ccccn3)c3nsnc23)nn1 (stereo not given),pIC50,[17],6.23
same,pIC50,[18],6.15
same,pIC50,[19],6.26
same,pIC50,[10],6.13
same,pIC50,[11],6.23
same,pIC50,[20],6.24
COc1cccc2c1C(=O)c1c(O)c3c(c(O)c1C2=O)C[C@@](O)(C(=O)CO)C[C@@H]3O[C@H]1C[C@H](N)[C@H](O)[C@H](C)O1 [DOXORUBICIN],pIC50,[17],6.08
same,pIC50,[21],6.44
same,pIC50,[18],6.05
same,pIC50,[19],6.11
same,pIC50,[10],6.06 to 7.52
same,pIC50,[11],6.06 to 7.52
same,pIC50,[20],6.12
same,pIC50,[12],7.52
CCCCCCCCC1CC2=C(O1)c1ccccc1C(=O)C2=O (stereo not given),pIC50,[3],4.68
same,selectivity ratio,[4],106
CC1(C)OC2=C(C(=O)C(=O)c3ccccc32)[C@H](n2cc(C[Se]c3ccc(F)cc3)nn2)[C@H]1Br,pIC50,[22],6.43
same,pIC50,[23],6.23
same,pIC50,[24],6.44
O=C1C(=O)c2ccccc2C2=C1C1(C(=O)Nc3ccc(Cl)cc31)N1NN=NC1=N2 (stereo not given),pIC50,[1],4.44 to 5.54
same,pIC50,[2],4.44 to 5.54
O=C1C(Br)=C(Br)C(=O)c2c(I)cccc21,pIC50,[15],5.85
COc1ccc2c(c1)NC(=O)C21C2=C(N=C3N=NNN31)c1ccccc1C(=O)C2=O (stereo not given),pIC50,[1],4.44 to 5.54
same,pIC50,[2],4.44 to 5.54
O=C1c2ccccc2C(=O)c2oc(-c3cccc(Cl)c3)nc21,pIC50,[25],7.10
same,pIC50,[26],7.52
COc1ccc(Sc2cccc3c2C(=O)C=CC3=O)cc1,pIC50,[14],5.12
CC1(C)CCC2=C(O1)c1ccccc1C(=O)C2=O [LAPACHONE],MIC,[27],100 µg/mL
CC1(C)OC2=C(C(=O)C(=O)c3ccccc32)C1CO (stereo not given),pIC50,[21],6.34
CC1(C)Oc2c(c3nc4c5cccnc5c5ncccc5c4nc3c3ccccc23)CC1I (stereo not given),pIC50,[16],5.31
O=C1C(=O)c2ccccc2C2=C1C1(C(=O)Nc3ccccc31)N1NN=NC1=N2 (stereo not given),pIC50,[1],4.44 to 5.54
same,pIC50,[2],4.44 to 5.54
O=C1C(=O)c2ccccc2C2=C1C1(C(=O)Nc3c(C(F)(F)F)cccc31)N1NN=NC1=N2 (stereo not given),pIC50,[1],4.44 to 5.54
same,pIC50,[2],4.44 to 5.54
CC(=O)OCC1C2=C(OC1(C)C)c1ccccc1C(=O)C2=O (stereo not given),pIC50,[21],6.22
O=C1C=CC(=O)c2c(SCc3ccccc3)cccc21,pIC50,[14],4.84
O=C1C2=C(S[C@@H]3OC[C@@H](O)[C@H](O)[C@H]3O2)C(=O)c2ccccc21,pIC50,[28],6.00
CCOC(=O)/C=C/c1cccc2c1C(=O)C=CC2=O,pIC50,[29],4.20
CC1(C)Cc2c(c3ccccc3c3nc4c5cccnc5c5ncccc5c4nc23)O1,pIC50,[16],4.64
Nc1nnn[nH]1,pIC50,[1],4.44 to 5.54
same,pIC50,[2],4.44 to 5.54
O=C1C=CC(=O)c2c(Sc3ccccc3)cccc21,pIC50,[14],4.91
O=C1C(=O)c2ccccc2C2=C1C1(C(=O)Nc3c(Br)cccc31)N1NN=NC1=N2 (stereo not given),pIC50,[1],4.44 to 5.54
same,pIC50,[2],4.44 to 5.54
O=C1C(=O)c2ccccc2C2=C1C1(C(=O)Nc3cc(Br)ccc31)N1NN=NC1=N2 (stereo not given),pIC50,[1],4.44 to 5.54
same,pIC50,[2],4.44 to 5.54
CC1(C)CC(Nc2ccc(Cl)cc2)C2=C(O1)C(=O)c1ccccc1C2=O (stereo not given),pIC50,[30],6.43 to 7.15
same,pIC50,[31],6.43 to 7.15
same,pIC50,[23],6.43 to 7.15
same,pIC50,[32],6.43 to 7.15
same,pIC50,[33],6.43 to 7.15
CC1(C)CCc2c(c3ccccc3c3nc4c5cccnc5c5ncccc5c4nc23)O1,pIC50,[16],5.31
O=C1C(=O)c2ccccc2C2=C1C1(C(=O)Nc3c(Cl)cccc31)N1NN=NC1=N2 (stereo not given),pIC50,[1],4.44 to 5.54
same,pIC50,[2],4.44 to 5.54
CCC(C)OP(=O)(N/N=C1\C(=O)C2=C(OC(C)(C)CC2)c2ccccc21)OC(C)CC (stereo not given),pIC50,[34],4.72
O=C1C(=O)c2ccccc2C2=C1CCCO2,pIC50,[35],6.00
same,pIC50,[26],5.56
same,pIC50,[36],6.05
same,pIC50,[2],6.05
same,pIC50,[37],5.49
Cc1ccc2c(c1)C1(C(=O)N2)C2=C(N=C3N=NNN31)c1ccccc1C(=O)C2=O (stereo not given),pIC50,[1],4.44 to 5.54
same,pIC50,[2],4.44 to 5.54
CC1(C)CCc2c(c3ccccc3c3nc4cc(Nc5ccccc5)/c(=N/c5ccccc5)cc-4n(-c4ccccc4)c23)O1,Ratio IC50,[38],61.3
Cc1ccc(Sc2cccc3c2C(=O)C=CC3=O)cc1,pIC50,[14],5.60
O=C1C(=O)c2ccccc2C2=C1C1(C(=O)N(c3ccccc3)c3ccccc31)N1NN=NC1=N2 (stereo not given),pIC50,[1],4.44 to 5.54
same,pIC50,[2],4.44 to 5.54
COc1ccc(/N=C2\C(=O)C3=C(OC(C)(C)CC3)c3ccccc32)cc1,pIC50,[32],8.00
Nc1c(I)ccc2c1C(=O)C=CC2=O,pIC50,[15],6.22
O=C1C(=O)c2ccccc2C2=C1C1(C(=O)Nc3ccc(Br)cc31)N1NN=NC1=N2 (stereo not given),pIC50,[1],4.44 to 5.54
same,pIC50,[2],4.44 to 5.54
COc1ccc(NC2CC(C)(C)OC3=C2C(=O)c2ccccc2C3=O)cc1 (stereo not given),pIC50,[23],7.15
